Measured values: patent US10203320B2, “Label free method for assessing chemical cardiotoxicity” (Corning Incorporated, priority 2012, dated 2019)
pIC50: −log10 of the molar value.

Key:
[1] = test system: cultured human iPS-derived cardiomyocytes; test: Label-free beat pattern (resonant light intensity imaging) of cultured cardiomyocytes on RWG biosensor; conditions: Cardiomyocyte, 0.25 h, read-out: IC50, dose-dependent decrease/block of beating (beat rate and amplitude) of cultured cardiomyocytes
Method: Coating of EPIC® resonant waveguide grating (RWG) biosensors. EPIC® 384 well cell culture compatible plates were obtained from Corning, Inc. (Corning, N.Y.). The gelatin-coated EPIC® plates were obtained by incubating the plates with 10 microliter of 20 microgram/mL of freshly prepared gelatin solution in phosphate buffer saline and dried overnight under vacuum. Alternatively or additionally, for example, in experiments with IPS derived cardiomyocytes, the gelatin-coated EPIC® plates were obtained by incubating overnight, uncoated plates with 40 microliters of 0.1% gelatin (Type A) in a solution made with distilled water and autoclaved for 30 minutes to sterilize. The incubated plates were then washed with 40 microliters of sterile water three times immediately before seeding with cardiomyocyte cells.

[2] = test system: cultured human iPS-derived cardiomyocytes; test: Dynamic mass redistribution (DMR) assay of cultured cardiomyocytes on RWG biosensor; type: cell-based; conditions: 160 nM
Method: Coating of EPIC® resonant waveguide grating (RWG) biosensors. […] VN is the abbreviation of a vitronectin peptide ([…]). First, a functionalized cell adhesive peptide-copolymer was prepared. […] The mobile phase was trifluoroethanol and potassium trifluoroacetate. […] Standards were prepared using the VN peptide in PBS. Absorbance was read on a BIOTEK® Synergy 4.
First Mode The resonant waveguide grating biosensor is illuminated at a normal incidence angle by a collimated LED (light emitting diode) beam, which passes through a tunable optical filter with a pass band width of 1 nm. The illuminated sensor area was imaged to a high speed CMOS (complementary metal-oxide-semiconductor) camera. Spectral images were acquired synchronously when the tunable filter sweeps through a wavelength range which covers the resonances of the biosensors. The image stack contains sensor spectra in all the pixels, where resonance wavelengths are extracted in a 2D image. Normally in each acquisition, the wavelength sweep is from 825 nm to 840 nm, or 820 nm to 835 nm for a duration of 3 seconds, and 150 frames of images were acquired during the wavelength scan. For typical long-term DMR assays, the update rate was from 15 seconds to minutes, with multiple scans averaged into a single data point. […]

Structure (SMILES): COc1cc(N)c(Cl)cc1C(=O)NC1CCN(CCCOc2ccc(F)cc2)CC1OC (stereo not shown) [cisapride, cisapride monohydrate]
- pIC50 [1]: ~6.80

Structure (SMILES): CC(C)NC[C@H](O)c1ccc(O)c(O)c1 [isoprotenerol, (−)-Isoproterenol]
- DMR signal of cultured cardiomyocytes in response to stimulation ([2]; compared to negative control (assay vehicle), 37° C., FIG. 3): more sustained DMR signal
- oscillation pattern of the DMR signal after stimulation ([2]; compared to the baseline and the DMR induced by the assay buffer): became smaller but with higher frequency

Structure (SMILES): COC(=O)C1=C(C)NC(C)=C(C(=O)OC(C)C)C1c1cccc2nonc12 (stereo not shown) [isradipine]
- pIC50 [1]: ~7.00
